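Briefly, cells in 96-well plates were exposed to five compound concentrations for 48 h, and endpoints were estimated by linear interpolation. At the GI50, growth is halved.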 Active and inactive are the calls of the source. Cut-off read from the data, not from the text of the source: active = GI50 up to about 1.1 µM and inactive = higher.
What was measured:
Assay in all cases: NCI anticancer screen, dose series, 48 h
[1] = system: A498
[2] = system: COLO 205
[3] = system: DLD-1
[4] = system: DMS-273
[5] = system: HCC 2998
[6] = system: HOP-62
[7] = system: HOP-92
[8] = system: HT-29
[9] = system: KM-20L2
[10] = system: M14
[11] = system: Malme-3M
[12] = system: NCI-H23
[13] = system: OVCAR-4
[14] = system: SK-MEL-2
[15] = system: SK-OV-3
[16] = system: TK-10

Measured: GI50

O=C1C(Cl)=C(Cl)C(=O)N1c1ccccc1Cl
inactive: [1] > 100 µM | [2] > 63.7 µM | [3] > 52.2 µM | [4] > 100 µM | [5] > 100 µM | [6] > 100 µM | [7] > 36.7 µM | [8] > 71 µM | [9] > 100 µM | [10] > 75.9 µM | [11] > 52.5 µM | [12] > 85.9 µM | [13] > 100 µM | [14] > 100 µM | [15] > 100 µM | [16] > 100 µM

CN1CCOC(C(NC(=O)c2ccccc2)c2ccccc2)C1=O (stereo unspecified)
inactive: [1] > 100 µM | [2] > 100 µM | [3] > 100 µM | [4] > 100 µM | [5] > 100 µM | [6] > 100 µM | [7] > 100 µM | [8] > 100 µM | [9] > 100 µM | [10] > 100 µM | [11] > 100 µM | [12] > 100 µM | [13] > 100 µM | [14] > 100 µM | [15] > 100 µM | [16] > 100 µM

O=[N+]([O-])c1cc(/C=N\NS(=O)(=O)c2ccc(Cl)cc2)c(O)c([N+](=O)[O-])c1
inactive: [1] 35.7 µM | [2] 16.1 µM | [3] 72.8 µM | [4] 26.5 µM | [5] 85.7 µM | [6] 47.3 µM | [7] 36.3 µM | [8] 24.9 µM | [9] 28.3 µM | [10] 32.4 µM | [11] 36.6 µM | [12] 22.2 µM | [13] 36.7 µM | [14] 31.1 µM | [15] 31.3 µM | [16] > 100 µM

COC(=O)N/N=c1\cc(C(=O)Nc2ccc(C)c(C)c2)oc2cc(O)ccc12
inactive: [1] > 100 µM | [2] > 100 µM | [3] > 100 µM | [4] > 100 µM | [5] > 100 µM | [6] > 100 µM | [7] > 100 µM | [8] > 100 µM | [9] > 100 µM | [10] > 100 µM | [11] > 100 µM | [12] > 100 µM | [13] > 100 µM | [14] > 100 µM | [15] > 100 µM | [16] > 100 µM

CN(C)CC1CCCC(CN(C)C)C1OC(=O)c1ccccc1 (stereo unspecified)
inactive: [1] > 100 µM | [2] > 100 µM | [3] > 100 µM | [4] > 100 µM | [5] > 100 µM | [6] > 100 µM | [7] > 100 µM | [8] > 100 µM | [9] > 100 µM | [10] > 100 µM | [11] > 100 µM | [12] > 100 µM | [13] > 100 µM | [14] > 100 µM | [15] > 100 µM | [16] > 100 µM

O=C(N/C(=C\c1c(O)ccc2ccccc12)c1nc2ccccc2[nH]1)c1ccccc1
inactive: [1] 38.2 µM | [2] > 100 µM | [3] > 100 µM | [4] > 100 µM | [5] > 100 µM | [6] 25.9 µM | [7] > 100 µM | [8] > 100 µM | [9] > 100 µM | [10] > 100 µM | [11] > 100 µM | [12] 87.1 µM | [13] > 100 µM | [14] > 100 µM | [15] 86.3 µM | [16] > 100 µM

C/C(CC(=O)Nc1cccc(Cl)c1C)=N\N=C(N)N
inactive: [1] > 100 µM | [2] > 100 µM | [3] > 100 µM | [4] 97.1 µM | [5] > 100 µM | [6] > 100 µM | [7] > 100 µM | [8] > 100 µM | [9] 42.6 µM | [10] > 100 µM | [11] > 100 µM | [12] > 100 µM | [13] > 100 µM | [14] > 100 µM | [15] > 100 µM | [16] > 100 µM

O=c1oc2cc(O)ccc2c2[nH]c3cc(O)ccc3c12
inactive: [1] 36.1 µM | [2] 23.9 µM | [3] 30.2 µM | [4] 21.6 µM | [5] 22.5 µM | [6] 24.3 µM | [7] 32.1 µM | [8] 35.1 µM | [9] 37.2 µM | [10] 36.4 µM | [11] 32.6 µM | [12] 24.5 µM | [13] 37.4 µM | [14] 19.1 µM | [15] 22.2 µM | [16] 36.3 µM

C#CC1(O)CCC2[C@@H]3CCc4cc(Oc5nc(F)nc(-c6c7ccccc7c(SCC)n6CCC)n5)ccc4C3CC[C@@]21C (stereo partly specified)
inactive: [1] > 100 µM | [2] > 100 µM | [3] > 100 µM | [4] > 100 µM | [5] > 100 µM | [6] > 100 µM | [7] > 100 µM | [8] > 100 µM | [9] > 100 µM | [10] 40.5 µM | [11] > 100 µM | [12] 25 µM | [13] > 100 µM | [14] 19.9 µM | [15] > 100 µM | [16] > 100 µM

C[N+](C)(C)CC1CCCC(C[N+](C)(C)C)C1O (stereo unspecified)
inactive: [1] > 100 µM | [2] > 100 µM | [3] > 100 µM | [4] > 100 µM | [5] > 100 µM | [6] > 100 µM | [7] > 100 µM | [8] > 100 µM | [9] > 100 µM | [10] > 100 µM | [11] > 100 µM | [12] > 100 µM | [13] > 100 µM | [14] > 100 µM | [15] > 100 µM | [16] > 100 µM

COc1cc(Cn2c3ccccc3c3cc(C)c4c(c32)C=CC(C)(CCC=C(C)C)O4)cc2c1[nH]c1ccccc12 (stereo unspecified) [CHRESTFOLINE C]
inactive: [1] > 100 µM | [2] > 100 µM | [3] > 100 µM | [4] > 100 µM | [5] > 100 µM | [6] > 100 µM | [7] > 100 µM | [8] > 100 µM | [9] > 100 µM | [10] > 100 µM | [11] > 100 µM | [12] > 100 µM | [13] > 100 µM | [14] > 100 µM | [15] > 100 µM | [16] > 100 µM

Source: ChEMBL document CHEMBL1201862, “PubChem BioAssay data set” (2004)
